This note sets out measurements from patent US20230321086A1, “METHODS AND MATERIALS FOR INHIBITING NICOTINAMIDE PHOSPHORIBOSYLTRANSFERASE ACTIVITY” (Universiy of Pittsburgh - Of the Commonwealth System of …, priority 2020, published 2023).

What is called IC50 is the midpoint of a concentration-inhibition curve.

The subject of one test is A431 cells. Put plainly: Assay for total NADH and NAD+ measurements in cells. In kind it is cell-based. The conditions noted are these: Homo sapiens, A-431, read-out: B: Cellular NAD inhibitory activity, IC50. The procedure, abridged: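 Cells (2,000/well) treated with compounds overnight, washed with PBS containing 1 mM CaCl2 and MgCl2, lysed with 0.4% DTAB in phosphate buffer pH 8.0. Reaction mix added and fluorescence (Ex/Em 530/585) followed over 8 cycles every 92 seconds; NAD given as % of untreated control.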

The target in the next test is NAMPT (Homo sapiens, UniProt P43490). Put plainly: Assay for in vitro NAMPT activity via NMN assessment. The test is classed as biochemical. The conditions noted are these: read-out: A: NAMPT enzyme inhibitory activity, IC50. How it is done: The following were added to a well: 20 μL 2× test compound in Basic Buffer (0.02% BSA, 2 mM DTT, 12 mM MgCl2, 50 mM Tris pH7.5); 10 μL 8 μg/mL NAMPT, and 200 μM PRPP working solution (or PRPP working solution to background wells). 10 μL 100 μM NAM working solution was added to start the reaction. The plate was sealed and incubated for 45 minutes at 37° C. After incubation, 10 μL 20% acetophenone in DMSO, 10 μL 2N KOH, and 20 μL 88% formic acid were added. The plate was sealed and incubated for 30 minutes at 37° C. After incubation, fluorescence at Ex/Em 387/441 was read.
In each table header, A: NAMPT enzyme inhibitory activity, IC50 (μM); B: Cellular NAD inhibitory activity, IC50 (μM); and C: change in NAD levels in response to test compound, shown as % of NAD activity in the absence of test compound. […] A percentage of 100 percent would indicate no increase or decrease in NAD levels as compared to that measured for untreated control cells, while a percentage of 50 percent would indicate a decrease in NAD levels of 50 percent as compared to that measured for untreated control cells.

Chain of NAMPT (P43490 whole entry, species assumed): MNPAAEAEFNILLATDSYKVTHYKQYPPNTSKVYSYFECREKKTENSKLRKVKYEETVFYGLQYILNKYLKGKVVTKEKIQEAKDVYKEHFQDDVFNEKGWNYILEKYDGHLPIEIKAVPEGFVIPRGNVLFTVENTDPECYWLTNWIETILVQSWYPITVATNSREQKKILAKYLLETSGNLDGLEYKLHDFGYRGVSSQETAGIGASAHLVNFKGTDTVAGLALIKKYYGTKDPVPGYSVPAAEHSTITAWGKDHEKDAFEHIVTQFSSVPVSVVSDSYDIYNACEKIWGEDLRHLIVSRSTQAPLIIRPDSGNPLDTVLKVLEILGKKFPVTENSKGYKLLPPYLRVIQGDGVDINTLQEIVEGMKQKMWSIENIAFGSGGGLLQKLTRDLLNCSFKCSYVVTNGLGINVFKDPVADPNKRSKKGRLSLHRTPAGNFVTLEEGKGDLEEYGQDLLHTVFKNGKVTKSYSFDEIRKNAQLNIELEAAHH

`O=C(NCc1cnc2nc(-c3ccc(F)cc3)c(-c3ccc(F)cc3)nc2c1)Nc1cccnc1` [BC20325]: the IC50 in the test with A431 cells and at NAMPT was < 1000 nM each time.
Turning to `O=C(NCCc1cccnn1)Nc1cnc2nc(-c3ccc(F)cc3)c(-c3ccc(F)cc3)nc2c1` [BC20314], the half-inhibitory concentration (IC50) in the test with A431 cells and at NAMPT was < 1000 nM each time.
As to `Nc1ccc(CNC(=O)Nc2cnc3nc(-c4ccc(F)cc4)c(-c4ccc(F)cc4)nc3c2)cn1` [BC20316], the IC50 in the test with A431 cells and at NAMPT was < 1000 nM in each case.
On to `O=C(NCc1ccc2nc(-c3ccc(F)cc3)c(-c3ccc(F)cc3)nc2c1)Nc1cccnc1` [BC20235], for which the half-maximal inhibitory concentration (IC50) in the test on A431 cells and on NAMPT was < 1000 nM in each case.
In the case of `O=C(NCCc1cccnc1)Nc1ccc2nc(-c3ccc(F)cc3)c(-c3ccc(F)cc3)nc2c1` [BC20216], the 50% inhibitory concentration (IC50) with A431 cells and on NAMPT was < 1000 nM throughout.
For the molecule `O=C(Nc1cccnc1)Nc1cnc2nc(-c3ccc(F)cc3)c(-c3ccc(F)cc3)nc2c1` [BC20254], the IC50 with A431 cells and on NAMPT was < 1000 nM throughout.
With `Nc1ccc(CNC(=S)Nc2ccc3nc(-c4ccc(F)cc4)c(-c4ccc(F)cc4)nc3c2)cn1` [BC20323], the half-inhibitory concentration (IC50) in the test on A431 cells and on NAMPT was < 1000 nM throughout.
Turning to `O=C(Nc1cnc2nc(-c3ccc(F)cc3)c(-c3ccc(F)cc3)nc2c1)N1Cc2cccnc2C1` [BC20321], the 50% inhibitory concentration (IC50) with A431 cells and at NAMPT was < 1000 nM in each case.
With `O=C(Nc1cnc2nc(-c3ccc(F)cc3)c(-c3ccc(F)cc3)nc2c1)N1Cc2ccncc2C1` [BC20334], the half-inhibitory concentration (IC50) with A431 cells and at NAMPT was < 1000 nM each time.
Take `Fc1ccc(-c2nc3ccc(NC(=S)N4Cc5ccccc5C4)cc3nc2-c2ccc(F)cc2)cc1` [BC20322]: the concentration for half-maximal inhibition (IC50) in the test on A431 cells and on NAMPT was < 1000 nM each time.
As to `O=C(NCCc1c[nH]cn1)Nc1cnc2nc(-c3ccc(F)cc3)c(-c3ccc(F)cc3)nc2c1` [BC20319], the IC50 in the test with A431 cells and at NAMPT was < 1000 nM in each case.
In the case of `O=C(NCCc1cn[nH]c1)Nc1cnc2nc(-c3ccc(F)cc3)c(-c3ccc(F)cc3)nc2c1` [BC20318], the IC50 with A431 cells and on NAMPT was < 1000 nM in each case.
`O=C(NCc1cnc2nc(-c3ccc(F)cc3)c(-c3ccc(F)cc3)nc2c1)c1cc2ccccc2s1` [BC20329]: the results for the 50% inhibitory concentration (IC50) with A431 cells and on NAMPT were 1000 to 25000 nM and ≥ 25000 nM, respectively.
With `O=C(Nc1cccnc1)Nc1ccc2nc(-c3ccc(F)cc3)c(-c3ccc(F)cc3)nc2c1` [BC20224], the IC50 in the test on A431 cells and on NAMPT was < 1000 nM each time.
In the case of `O=C(NCc1cnc2nc(-c3ccc(F)cc3)c(-c3ccc(F)cc3)nc2c1)N1Cc2cccnc2C1` [BC20332], the IC50 in the test on A431 cells and on NAMPT was < 1000 nM in each case.
On to `Nc1ccc(CCNC(=O)Nc2cnc3nc(-c4ccc(F)cc4)c(-c4ccc(F)cc4)nc3c2)cn1` [BC20320], for which the half-maximal inhibitory concentration (IC50) in the test on A431 cells and on NAMPT was < 1000 nM each time.
Consider `O=C(NCCc1cncs1)Nc1cnc2nc(-c3ccc(F)cc3)c(-c3ccc(F)cc3)nc2c1` [BC20315], for which the IC50 with A431 cells and at NAMPT was < 1000 nM throughout.
For `O=C(Nc1ccc2nc(-c3ccc(F)cc3)c(-c3ccc(F)cc3)nc2c1)N1Cc2ccccc2C1` [BC20330], the IC50 in the test with A431 cells and on NAMPT was < 1000 nM each time.
Consider `O=C(NCc1cnc2nc(-c3ccc(F)cc3)c(-c3ccc(F)cc3)nc2c1)N1Cc2ccncc2C1` [BC20327], for which the IC50 in the test with A431 cells and on NAMPT was < 1000 nM in each case.
Consider `O=C(Nc1cnc2nc(-c3ccc(F)cc3)c(-c3ccc(F)cc3)nc2c1)N1Cc2ccccc2C1` [BC20317], for which the half-maximal inhibitory concentration (IC50) in the test on A431 cells and on NAMPT was < 1000 nM throughout.
`O=C(NCCc1cccnc1)Nc1cnc2nc(-c3ccc(Cl)cc3)c(-c3ccc(Cl)cc3)nc2c1` [BC20311]: the IC50 in the test on A431 cells and on NAMPT was < 1000 nM each time.
For `O=C(NCc1cccnc1)NCc1cnc2nc(-c3ccc(F)cc3)c(-c3ccc(F)cc3)nc2c1` [BC20326], the 50% inhibitory concentration (IC50) in the test on A431 cells and on NAMPT was 1000 to 25000 nM in each case.
On to `Fc1ccc(-c2nc3cc(NC(=S)NCCc4cccnc4)cnc3nc2-c2ccc(F)cc2)cc1` [BC20309], for which the 50% inhibitory concentration (IC50) in the test on A431 cells and on NAMPT was < 1000 nM in each case.
On to `O=C(Nc1ccc2nc(-c3ccc(F)cc3)c(-c3ccc(F)cc3)nc2c1)N1Cc2cccnc2C1` [BC20333], for which the concentration for half-maximal inhibition (IC50) in the test with A431 cells and on NAMPT was < 1000 nM each time.
As to `O=C(NCCc1cccnc1)c1cnc2nc(-c3ccc(F)cc3)c(-c3ccc(F)cc3)nc2c1` [BC20205], the IC50 in the test on A431 cells and on NAMPT was < 1000 nM each time.
Consider `Nc1ccc(CNC(=S)Nc2cnc3nc(-c4ccc(F)cc4)c(-c4ccc(F)cc4)nc3c2)cn1` [BC20324], for which the 50% inhibitory concentration (IC50) with A431 cells and on NAMPT was < 1000 nM each time.
With `O=C(NCc1cnc2nc(-c3ccc(F)cc3)c(-c3ccc(F)cc3)nc2c1)c1cc2ccncc2o1` [BC20328], the IC50 with A431 cells and at NAMPT was < 1000 nM each time.
On to `O=C(NCc1cccnc1)c1ccc2nc(-c3ccccc3)c(-c3ccccc3)nc2c1` [BC18405], for which the 50% inhibitory concentration (IC50) with A431 cells and at NAMPT was < 1000 nM in each case.
As for `Nc1ccc(CNC(=O)Nc2ccc3nc(-c4ccc(F)cc4)c(-c4ccc(F)cc4)nc3c2)cn1` [BC20331], the half-maximal inhibitory concentration (IC50) with A431 cells and on NAMPT was < 1000 nM in each case.
As to `O=C(NCc1cccnc1)Nc1cnc2nc(-c3ccc(F)cc3)c(-c3ccc(F)cc3)nc2c1` [BC20213], the IC50 in the test on A431 cells and on NAMPT was < 1000 nM in each case.
On to `O=C(NCCc1cccnc1)Nc1cnc2nc(-c3ccc(F)cc3)c(-c3ccc(F)cc3)nc2c1` [BC20268], for which the IC50 in the test with A431 cells and on NAMPT was < 1000 nM each time.
With `CC(=O)N1CCCC(NC(=O)Nc2cnc3nc(-c4ccc(F)cc4)c(-c4ccc(F)cc4)nc3c2)C1` (stereo not shown) [BC20239], at NAMPT, the IC50 was ≥ 25000 nM.
With `C#CCNC(=O)c1ccc2nc(-c3cccc(CNS(C)(=O)=O)c3)c(-c3cccc(CNS(C)(=O)=O)c3)nc2c1` [BC20261], the IC50 on NAMPT was ≥ 25000 nM.
